# Test results from patent US11865126B2, “Method for treating anxiety disorders, headache disorders, and eating disorders with psilocybin” (priority 2019, dated 2024).
# Legend:
# healthy subjects [1] = assay: NEO-Five Factor Inventory (NEO-FFI); type: in vivo, human
# Method: In some embodiments, the NEO-Five Factor Inventory (NEO-FFI) test is used to evaluate the safety and/or efficacy of psilocybin. The NEO-FFI evaluates 5 broad domains of personality—Neuroticism, Extroversion, Openness, Agreeableness and Conscientiousness.
# The Neuroticism Extraversion Openness-Five Factor Inventory (NEO-FFI) and Symptom Checklist-90 Item (SCL-90) were administered. Details of the MMRM applied to the change from baseline scores for the NEO-FFI and SCL-90 are provided below in Table 28.
# healthy subjects [2] = assay: Reading the Mind in the Eyes Test (RMET); type: in vivo, human
# Text: In some embodiments, Reading the Mind in the Eyes Test (RMET) is utilized to evaluate the safety and/or efficacy of psilocybin. The RMET has 36 items, in which subjects are presented with a photograph of the eyes region of the face and must choose 1 of 4 adjectives or phrases to describe the mental state of the person pictured. A definition handout is provided at the beginning of the task and a practice item precedes the first trial.
# The following list of outcome measures are non-exhaustive. • a. The short-term change from Baseline (Day −1 [Visit 2]) to Day 7 (Visit 5) in cognitive measures of attention, spatial and working memory and executive function was measured by a composite score of the CANTAB Panel (Spatial Working Memory [SWM], Rapid Visual Information Processing [RVP], Paired Associates Learning [PAL]). • b. The short-term change from Baseline (Day −1 [Visit 2]) to Day 7 (Visit 5) in Social Cognition Panel scales (Pictorial Empathy Test [PET], Reading the Mind in the Eyes Test [RMET], Toronto Empathy Questionnaire [TEQ], Social Value Orientation [SVO], Scale of Social Responsibility [SSR]). • c. The change from Baseline (Day −1 [Visit 2]) to Day 28 (Visit 6) in cognitive measures of attention, spatial and working memory and executive function as measured by a composite score of the CANTAB Panel (SWM, RVP, PAL). • d. The long-term change from Baseline (Day −1 [Visit 2]) to Day 84 (Visit 7) in Social Cognition Panel scales (PET, RMET, TEQ, SVO, SSR). • e. Dose-related differences between cognitive effects of psilocybin at Baseline (Day −1 [Visit 2]), Day 7 (Visit 5) and Day 28 (Visit 6), as measured by a composite score of the CANTAB Panel (SWM, RVP, PAL). • f. Dose-related differences between psychological effects of psilocybin at Baseline (Day −1 [Visit 2]), Day 7 (Visit 5) and Day 84 (Visit 7), as measured by Social Cognition Panel scales (PET, RMET, TEQ, SVO, SSR). • g. Differences in cognitive effects of psilocybin between psilocybin-naïve and experienced subjects at Baseline (Day −1 [Visit 2]), Day 7 (Visit 5) and Day 28 (Visit 6), as measured by a composite score of the CANTAB Panel (SWM, RVP, PAL). • h. Differences in Positive and Negative Affect Schedule (PANAS) after study drug administration on Day 0 (Visit 3). • i. Differences between psilocybin and placebo in the Emotion Recognition Test (ERT), Intra-Extra Dimensional Set Shift (IED), One Touch Stockings (OTS), Verbal Fluency and Digit Span Forward at Day 7 (Visit 5). • j. A composite score of the CANTAB Panel, including the following tests: • i. Spatial Working Memory (SWM) (performed at Visit 2, Visit 5, and Visit 6). • ii. Rapid Visual Information Processing (RVP) (performed at Visit 2, Visit 5, and Visit 6). • iii. Paired Associates Learning (PAL) (performed at Visit 2, Visit 5, and Visit 6). • k. Cognitive Flexibility Panel • i. Emotion Recognition Task (ERT) (performed at Visit 5). • ii. Intra-Extra Dimensional Set Shift (IED) (performed at Visit 5). • iii. One Touch Stockings (OTS) (performed at Visit 5). • iv. Verbal Fluency (performed at Visit 5). • v. Digit Span Forward (performed at Visit 5). • l. Five Dimension Altered States of Consciousness questionnaire (5D-ASC) (performed at Visit 3). • m. PANAS (performed at Visit 2 and Visit 3). • n. NEO-Five Factor Inventory (NEO-FFI) (performed at Visit 2, Visit 5, and Visit 7). • o. Symptom Checklist-90 item (SCL-90) (performed at Visit 2, Visit 5, and Visit 7). • p. Life Changes Inventory (LCI): The LCI measures changes in attitudes and values after near-death experiences often used to evaluate personal transformation following spiritually oriented experiences and practices. (performed at Visit 5 and Visit 7). • q. Social Cognition Panel scales • i. Pictorial Empathy Test (PET) (performed at Visit 2, Visit 5, and Visit 7). • ii. Reading the Mind in the Eyes Test (RMET) (performed at Visit 2, Visit 5, and Visit 7). • iii. Social Value Orientation (SVO) (performed at Visit 2, Visit 5, and Visit 7). • iv. […]
structure (smiles),measurement,setting,value
CN(C)CCc1c[nH]c2cccc(OP(=O)(O)O)c12 [psilocybin],"NEO agreeableness change from baseline, difference Psilocybin 10 mg - Placebo",healthy subjects [1]; Day 7,−0.4
same,"NEO agreeableness change from baseline, difference Psilocybin 25 mg - Placebo",healthy subjects [1]; Day 7,−0.1
same,"NEO agreeableness change from baseline, difference Psilocybin (25 mg-10 mg)",healthy subjects [1]; Day 7,0.4
same,"NEO conscientiousness change from baseline, difference Psilocybin 10 mg - Placebo",healthy subjects [1]; Day 7,0.4
same,"NEO conscientiousness change from baseline, difference Psilocybin 25 mg - Placebo",healthy subjects [1]; Day 7,0.7
same,"NEO conscientiousness change from baseline, difference Psilocybin (25 mg-10 mg)",healthy subjects [1]; Day 7,0.3
same,"NEO extraversion change from baseline, difference Psilocybin 10 mg - Placebo",healthy subjects [1]; Day 7,0.4
same,"NEO extraversion change from baseline, difference Psilocybin 25 mg - Placebo",healthy subjects [1]; Day 7,0.5
same,"NEO extraversion change from baseline, difference Psilocybin (25 mg-10 mg)",healthy subjects [1]; Day 7,0.1
same,"NEO neuroticism change from baseline, difference Psilocybin 10 mg - Placebo",healthy subjects [1]; Day 7,−0.2
same,"NEO neuroticism change from baseline, difference Psilocybin 25 mg - Placebo",healthy subjects [1]; Day 7,0.2
same,"NEO neuroticism change from baseline, difference Psilocybin (25 mg-10 mg)",healthy subjects [1]; Day 7,−0.0
same,"NEO openness change from baseline, difference Psilocybin 10 mg - Placebo",healthy subjects [1]; Day 7,1.1
same,"NEO openness change from baseline, difference Psilocybin 25 mg - Placebo",healthy subjects [1]; Day 7,1.2
same,"NEO openness change from baseline, difference Psilocybin (25 mg-10 mg)",healthy subjects [1]; Day 7,0.1
same,"NEO agreeableness change from baseline, difference Psilocybin 10 mg - Placebo",healthy subjects [1]; Day 84,−0.8
same,"NEO agreeableness change from baseline, difference Psilocybin 25 mg - Placebo",healthy subjects [1]; Day 84,−0.7
same,"NEO agreeableness change from baseline, difference Psilocybin (25 mg-10 mg)",healthy subjects [1]; Day 84,0.1
same,"NEO conscientiousness change from baseline, difference Psilocybin 10 mg - Placebo",healthy subjects [1]; Day 84,0.2
same,"NEO conscientiousness change from baseline, difference Psilocybin 25 mg - Placebo",healthy subjects [1]; Day 84,1.4
same,"NEO conscientiousness change from baseline, difference Psilocybin (25 mg-10 mg)",healthy subjects [1]; Day 84,1.2
same,"NEO extraversion change from baseline, difference Psilocybin 10 mg - Placebo",healthy subjects [1]; Day 84,−0.7
same,"NEO extraversion change from baseline, difference Psilocybin 25 mg - Placebo",healthy subjects [1]; Day 84,−0.5
same,"NEO extraversion change from baseline, difference Psilocybin (25 mg-10 mg)",healthy subjects [1]; Day 84,0.2
same,"NEO neuroticism change from baseline, difference Psilocybin 10 mg - Placebo",healthy subjects [1]; Day 84,0.3
same,"NEO neuroticism change from baseline, difference Psilocybin 25 mg - Placebo",healthy subjects [1]; Day 84,−1.0
same,"NEO neuroticism change from baseline, difference Psilocybin (25 mg-10 mg)",healthy subjects [1]; Day 84,−1.3
same,"NEO openness change from baseline, difference Psilocybin 10 mg - Placebo",healthy subjects [1]; Day 84,1.1
same,"NEO openness change from baseline, difference Psilocybin 25 mg - Placebo",healthy subjects [1]; Day 84,0.4
same,"NEO openness change from baseline, difference Psilocybin (25 mg-10 mg)",healthy subjects [1]; Day 84,−0.7
same,"RMET change from baseline, LS mean difference Psilocybin 10 mg - Placebo","healthy subjects [2]; Day 7, MMRM",0.1
same,"RMET change from baseline, LS mean difference Psilocybin 25 mg - Placebo","healthy subjects [2]; Day 7, MMRM",0.2
same,"RMET change from baseline, LS mean difference Psilocybin 25 mg-10 mg","healthy subjects [2]; Day 7, MMRM",0.0
same,"RMET change from baseline, LS mean difference Psilocybin 10 mg - Placebo","healthy subjects [2]; Day 84, MMRM",0.2
same,"RMET change from baseline, LS mean difference Psilocybin 25 mg - Placebo","healthy subjects [2]; Day 84, MMRM",0.5
same,"RMET change from baseline, LS mean difference Psilocybin 25 mg-10 mg","healthy subjects [2]; Day 84, MMRM",0.3
